Source: patent US7087620B2, “Liquid pharmaceutical formulations containing 3,7-diazabicyclo[3,3,1]nonane compounds and methods of treatment relating to anti-arrhythmic events” (Solvay Pharmaceuticals GmbH, priority 2002, dated 2006)
Entries after “also recorded” stand apart in the source; their conditions may differ.

Test system: healthy male subjects
Assay: Two step infusion study in healthy male subjects: pharmacodynamics (12-lead ECG: QT, QTc, heart rate)
Format: in vivo, human
Conditions: for Pharmacodynamic action on QT, QTc interval and heart rate: over two hours post dosing
Procedure: A double-blind, placebo-controlled, randomized, single iv dose, two periods cross-over study to assess the safety, tolerability, pharmacodynamics and pharmacokinetics during and following a two step infusion of Tedisamil in healthy male subjects was performed with the following drug and dosages: Tedisamil dihydrochloride/0.4 mg/kg body weight infused over 30 minutes.
• 1. To assess safety and tolerability of tedisamil in healthy male subjects during and following a two step infusion scheme (0.4 mg/kg body weight infused over 30 minutes, with half of the dose infused over 10 minutes and half of the dose infused over the remaining 20 minutes). • 2. […] Methodology:
This was a single center, double-blind, placebo-controlled, randomized, single iv dose, two period cross-over study. Subjects were randomly allocated to either treatment sequence tedisamil-placebo or placebo-tedisamil. Number of patients (planned, screened, randomized and analyzed): Planned: 18, Screened: 27, Randomized: 18, Analyzed: 18 in PK/PD and safety analyses.
Subjects were included in the study only if they were healthy males, their age was in the range of 18-40 years (both inclusive), their body mass index (BMI) was between 18 kg/m^2 and 28 kg/m^2. Test product, dose and mode of administration: Tedisamil dihydrochloride; Strength: 2 mg/ml; Dose: 0.4 mg/kg body weight infused over 30 minutes, with half of the dose infused over 10 minutes and half of the dose infused over the remaining 20 minutes. Route: intravenous.
12-lead ECG.s were taken at several time points to explore the pharmacodynamic effects of Tedisamil (effects on QT and QTc) during and following infusion. The maximum value and maximum increase were derived for QTc and QT and the minimum value and maximum decrease were derived for heart rate. The AUC(0-24) and the maximum for the placebo-corrected QTc and QT and the AUC(0-24) and the minimum for the placebo-corrected heart rate were also calculated.
Descriptive statistics were performed for the ECG intervals QT, QTc, RR, PR, QRS and for heart rate by treatment (tedisamil, placebo and “tedisamil−placebo”) and time point. Individual and mean (arithmetic mean±1 SD) time profiles for ECG intervals and heart rate were graphically presented for both treatments.
Derived parameters, i.e. maximum value and maximum increase for QTc and QT, and minimum value and maximum decrease for heart rate were submitted to separate analyses of (co)variance (covariance only for maximum and minimum values) including subject, treatment, sequence, and period as class effects (and the individual pre-dose value as covariate). Point estimates and 95% confidence intervals were constructed for the difference “tedisamil−placebo” using the residual variance. Model assumptions were checked by visual inspection of residual plots. Additionally, descriptive statistics were calculated for the derived parameters per treatment and for the difference “tedisamil−placebo”.
Descriptive statistics for the placebo corrected AUC(0-24) of QTc, QT and heart rate and the placebo corrected maximum effect (maximum for QTc and QT and minimum for heart rate) were calculated. In addition, 95% confidence intervals were derived based on normally distributed outcomes.

[1] = 0.4 mg/kg tedisamil dihydrochloride iv, two step infusion over 30 minutes
[2] = difference tedisamil−placebo, analysis of covariance, 0.4 mg/kg iv two step infusion
[3] = difference tedisamil−placebo, analysis of variance, 0.4 mg/kg iv two step infusion
[4] = placebo-corrected, 0.4 mg/kg iv two step infusion

C1CCC2(C1)C1CN(CC3CC3)CC2CN(CC2CC2)C1 [Tedisamil, N,N′-dicyclopropylmethyl-9,9-tetramethylene-3,7-diazabicyclo[3,3,1]nonane]
Heart Rate Max. Decrease, Arith. Mean (SD) [1]: 10.6 (3.8) bpm | Heart Rate Minimum, Arith. Mean (SD) [1]: 49.2 (7.0) bpm | QT Interval Max. Increase, Arith. Mean (SD) [1]: 76.0 (22.4) ms | QT Interval Maximum, Arith. Mean (SD) [1]: 474.2 (39.2) ms | QTc Interval Max. Increase, Arith. Mean (SD) [1]: 61.1 (30.3) ms | QTc Interval Maximum, Arith. Mean (SD) [1]: 455.9 (30.0) ms | Heart Rate Minimum, Estimate (Ted-Pla) [2]: −4.01 bpm | QT Interval Maximum, Estimate (Ted-Pla) [2]: 58.4 ms | QTc Interval Maximum, Estimate (Ted-Pla) [2]: 34.0 ms | Heart Rate Max. Decrease, Estimate (Ted-Pla) [3]: 4.22 bpm | QT Interval Max. Increase, Estimate (Ted-Pla) [3]: 57.9 ms | QTc Interval Max. Increase, Estimate (Ted-Pla) [3]: 34.1 ms | Pharmacodynamic action on QT, QTc interval and heart rate (two step infusion): a marked prolongation of QT and QTc interval and a distinct decrease in heart rate; also recorded: strong effect on QT, QTc and heart in the first two hours post dosing | Pharmacodynamic action on QT, QTc interval and heart rate (two step infusion, listed as TEDI): a prolongation of QT and QTc intervals and a distinct decrease in heart rate | Placebo-corrected Heart Rate AUC(0-24), Mean (SD) [4]: −13.5 (11.5) bpm | Placebo-corrected Heart Rate Minimum, Mean (SD) [4]: −15.9 (6.0) bpm | Placebo-corrected QT Interval AUC(0-24), Mean (SD) [4]: 112.9 (382.9) ms | Placebo-corrected QT Interval Maximum, Mean (SD) [4]: 74.7 (36.7) ms | Placebo-corrected QTc Interval AUC(0-24), Mean (SD) [4]: 28.5 (170.5) ms | Placebo-corrected QTc Interval Maximum, Mean (SD) [4]: 63.9 (26.9) ms | Effect on AUC(0-24) values of QT, QTc and heart rate (placebo-corrected, two step infusion): A significant effect of Tedisamil could not be found
